Results reported in patent US8099262B2, “Estimation of clinical cut-offs” (priority 2004, dated 2012).

Columns and labels:
Type in all cases: in vivo
[1] = tested on: HIV; parameters: Linear Regression Higher CO / Linear Regression Lower CO: unit not given here; conditions: for VIROLOGIC RESPONSE Baseline FC for 80% REDUCTION of response (upper cutoff) / VIROLOGIC RESPONSE 20% REDUCTION (fold change, preliminary VirtualPhenotype Clinical Cutoff) / VIROLOGIC RESPONSE 80% REDUCTION (fold change, preliminary VirtualPhenotype Clinical Cutoff): preliminary linear regression analysis; for VIROLOGIC RESPONSE 20% REDUCTION (fold change, preliminary VirtualPhenotype Clinical Cutoff) / VIROLOGIC RESPONSE 80% REDUCTION (fold change, preliminary VirtualPhenotype Clinical Cutoff): virologic response at 8 weeks; for Linear Regression Higher CO / Linear Regression Lower CO: Definition 2, Overall (whole population)
Excerpt: Databases of studies for patients with tenofovir containing regimens and consisting of patient baseline demographic characteristics, clinical outcome results with viral load and resistance data (Fold change), were retrieved and remapped according to a common structure allowing a meta-analysis. The structure consisted of baseline sequence, viral load data set, viral load measurements and sampling dates (for example viral load within 3 months of starting new regimen and viral load assessment 8 and/or 24 weeks after beginning new regimen), CD4+ data set which contains CD4+ counts and sampling dates, resistance data set containing the fold changes to different antivirals and sampling dates; patient data set with patient information such as age, gender, race, treatment history; treatment data set with drug regimens, start and stop dates, doses, formulations, frequency of intake, regimen changes after resistance tests. The structure of such a clinical data base can be seen in FIG. 1a.
The viral load response data includes censored (<400 copies/ml) values. Parameters of the underlying uncensored distribution were estimated by maximum likelihood estimation in SAS (proc lifereg). The viral load response data are corrected for baseline viral load and cPSS.
(§1) The models applied were linear regression, logistic regression, and a classification tree. These models also took into account effects of the concomitant HIV drugs (PSS), baseline viral load (Baseline Log(V1)i) and, optionally, treatment history in order to avoid bias introduced by imbalances of important characteristics. From the models, a prediction of clinical outcome could be made at different levels of the baseline fold change resistance.
In the linear regression model, the proposed equation was the following: LogVL dropi=β0+β1*Baseline Log(V1)i+β2*PSSi+β3*(1/FC)i+ξi where i represented the patient, β0 the intercept, β1, β2 and β3 coefficients indicated the increase in log viral load drop per unit increase of respectively the baseline log VL, the number of sensitive drugs in the background regimen and the inverse of the baseline fold change. ξi was a random error term indicating the deviation of the patient from the value predicted by the model. Interactions between all the factors were evaluated and other baseline characteristics, i.e treatment history, were added if relevant.
When viral load results under the detection limits are obtained, biases could be introduced if the detection limit values are considered when calculating viral load drops and using those in the linear regression model. To avoid this, censoring needed to be taken into account and therefore the PROC LIFEREG facility in the SAS package was employed.
Clinical responses were predicted in the models developed in previous step 2. […] In order to determine the fold changes at which clinically relevant diminished clinical responses can be observed, three definitions of clinical cut-offs were considered:
(§2) The maximum effect was defined as the treatment effect at fold change 1, and the minimum effect was defined as the treatment effect at a very high fold change (i.e. when the curve reached a plateau). The effect range was then the difference between the maximum effect and the minimum effect.

[2] = tested on: HIV; parameters: key to Modelled Lower Cutoff & Confidence Interval / Modelled Upper Cutoff & Confidence Interval: fold change (FC) matching VL drop at 20% and 80% loss of activity; conditions: for Modelled Lower Cutoff & Confidence Interval / Modelled Upper Cutoff & Confidence Interval: preferred embodiment of linear regression
Excerpt: In a preferred embodiment of the linear regression model, more factors are included in order to obtain a more refined prediction of viral load response. These factors include for example a sensitivity score per drug class in addition to the overall sensitivity score of the background treatment (cPSS), previous exposure to the drug (naïve (Yes/No), naïve to PIs, naïve to NRTI's, etc. . . . ). Furthermore, in the preferred embodiment, the fold change is transformed before inserting the figures into the model. The transformation to the fold change comprises a power-transformation ranging from FC^−3 to FC^1. In addition, a quadratic term in cPSS is preferably added.
The NRTI[naïve] value represents whether the patient is naïve to nucleoside RT inhibitors. If yes, value=1, if no, value=0. The PSS[NRTI} represents the phenotypic sensitivity score for NRTIs, i.e the number of active NRTIs in the background regimen for the patient.
Stage 3: Determine Fold change equivalent to VL drop at 20% and 80% loss of activity by inserting values for VL drop into the above equation and calculating FC. […]

[3] = tested on: HIV; conditions: for Test Data BCO Odds Ratio / Validation Data BCO Odds Ratio: biological cutoffs; for Test Data CCO Odds Ratio / Validation Data CCO Odds Ratio: clinical cutoffs
Excerpt: Further factors which may be taken into account when validating the model are the odds ratios determined using clinical cutoffs compared to those determined using biological cutoffs. These ratios represent the odds of being a responder in the group that is labeled resistant by the cutoffs divided by the odds of being a responder in the group that is labeled sensitive by the cutoffs. In this way it is possible to evaluate how well the cutoffs perform on a drug by drug basis. The further away that the odds ratio is from 1, the stronger the correlation between the resistance class and clinical outcome. The odds ratio as specified above yield numbers smaller than 1 as the odds of being a responder should be smaller in the higher resistance class. Put another way, the probability of response will decrease as the resistance increases. Additionally, if the odds ratio for the CCO is smaller than the odds ratio for the BCO, it can be concluded that the CCO is stronger correlated with clinical outcome and therefore gives a better prediction than the BCO.
(§3) A logistic regression model may be used to determine the odds ratio. The model used is the same as the logistic regression model described above except that the fold change in the model is replaced by the resistance class. The coefficient for the resistance class that is obtained from the model is the log (odds ratio). The advantage of using this model is that the odds ratio estimates can be adjusted for the baseline viral load and the cPSS score of the background regimen.
The columns headed CCO Odds Ratio and BCO Odds Ratio represent the odds of being a responder in the group that is labeled resistance by the cutoffs divided by the odds of being a responder in the group that is labeled sensitive by the cutoffs. For example, if there are four non-responders and one responder in the resistant group, and four responders and two non-responders in the sensitive group, the odds of being a responder in the resistant group is 1:4=0.25 and the odds of being a responder in the sensitive group is 4:2=2. […] The further away that the odds ratio is from 1, the stronger the correlation between the resistance class and clinical outcome.
The separation in groups (resistance/sensitive) can be done based on clinical cutoffs or biological cutoffs. This means that odds ratios based on clinical cutoffs (CCO) and odds ratios based on biological cutoffs (BCO) can be compared. If the odds ratio for the CCO is smaller than the odds ratio for the BCO, it can be concluded that the CCO gives a better prediction than the BCO.
as §3, with “In practice, a” for “A”, “is” for “may be”, “similar to” for “the same as the”, “earlier” for “above”, “regimen. […] In this case, a larger odds ratio indicates a stronger correlation with clinical outcome.” for “regimen.”

[4] = tested on: HIV; assay: Logistic regression model of probability of success/failure as a function of baseline fold change resistance (clinical cut-offs); conditions: Definition 2; for lower cutoff, logistic regression / upper cutoff, logistic regression: log baseline VL/background PSS of 5/0
Excerpt: In such a method, Prob of success is preferably calculated by performing a logistic regression analysis using data from a clinical response dataset, wherein Prob of success is modelled according to the following equation: […]
as §1, with “The clinical outcome results (drop in viral load and response rate) were modelled as a function of baseline fold change (FC) as determined by virtual phenotype (see WO01/79540 and WO02/33402; also http://www.vircolab.com). The models” for “The models”
In the logistic regression, the proposed equation was the following: […]
However, by binning the viral load into successes and failures, part of the information of the continuous variable viral load is lost. Estimates are also corrected for covariates as for linear regression.
as §2
The lower and higher cutoffs are defined as the fold change associated with an expected 20% and 80% decrease respectively of the reference activity of the drug within the regimen.

[5] = Log(BaselineVL)=4, cPSS=2, PSS[NRTI]=1, NRTI[naïve]=0
[6] = definition 2, Log(BaselineVL)=4, reference fold changes 0.9 and 3, cPSS=2, PSS[NRTI]=1, NRTI[naïve]=0
[7] = Definition 1, log baseline viral load of 5, no active drugs in addition
[8] = Subgroup 1: PSS = 2, baseline Log (VL) = 4
[9] = Subgroup 3: PSS = 2, baseline Log (VL) = 5

| Molecule | clinical cutoff for 80% reduced response (upper clinical cutoff) ([1]; definition 2, after 8 weeks) | Modelled Lower Cutoff & Confidence Interval [2] | Modelled Upper Cutoff & Confidence Interval [2] | Test Data BCO Odds Ratio [3] | Test Data CCO Odds Ratio [3] | Validation Data BCO Odds Ratio [3] | Validation Data CCO Odds Ratio [3] | VIROLOGIC RESPONSE Baseline FC for 80% REDUCTION of response (upper cutoff) ([1]; definition 2) | VIROLOGIC RESPONSE 20% REDUCTION (fold change, preliminary VirtualPhenotype Clinical Cutoff) [1] | VIROLOGIC RESPONSE 80% REDUCTION (fold change, preliminary VirtualPhenotype Clinical Cutoff) [1] | also measured |
| --- | --- | --- | --- | --- | --- | --- | --- | --- | --- | --- | --- |
| CC(C)CN(C[C@@H](O)[C@H](Cc1ccccc1)NC(=O)O[C@H]1CCOC1)S(=O)(=O)c1ccc(N)cc1 [APV, amprenavir] | 3.4 |  |  |  |  |  |  |  |  |  |  |
| Cc1cn([C@H]2C=C[C@@H](CO)O2)c(=O)[nH]c1=O [D4T, stavudine] |  |  |  |  |  |  |  |  |  |  | Fold change equivalent to VL drop at 20% loss of activity [2, 5]: 1.08; Fold change equivalent to VL drop at 80% loss of activity [2, 5]: 2.18; VL drop when drug has lost 20% of its activity [2, 5]: −2.76; VL drop when drug has lost 80% of its activity [2, 5]: −2.21; modelled lower clinical cutoff (CCO) [2, 6]: 1.1; modelled upper clinical cutoff (CCO) [2, 6]: 2.2; VL drop at the lower reference FC (drug is fully active) ([2]; lower reference fold change=0.9, Log(BaselineVL)=4, cPSS=2, PSS[NRTI]=1, NRTI[naïve]=0): −2.94; VL drop at the upper reference FC (minimal activity of the drug) ([2]; upper reference fold change=3, Log(BaselineVL)=4, cPSS=2, PSS[NRTI]=1, NRTI[naïve]=0): −2.03; fold change at predicted viral load drop of −0.2 logs [1, 7]: 4.0; fold change at predicted viral load drop of −0.6 logs [1, 7]: 2.6; predicted viral load drop for any fold change ([1]; Definition 1, log baseline viral load of 5, two active drugs in addition): more than 0.6 log copies/mL |
| CC(C)(C)NC(=O)[C@@H]1CN(Cc2cccnc2)CCN1C[C@@H](O)C[C@@H](Cc1ccccc1)C(=O)N[C@H]1c2ccccc2C[C@H]1O [IDV, indinavir] | 3.4 |  |  |  |  |  |  |  |  |  |  |
| Cc1ccnc2c1NC(=O)c1cccnc1N2C1CC1 [NVP, neviripine] |  | 1.5 | 3.2 | 0.290 | 0.282 | 0.054 | 0.054 |  |  |  |  |
| Indinavir/r [IDV/r] |  | 4.1 | 21.2 | 0.122 | 0.027 | 0.038 | 0.012 | 25 | 3.5 | 25 |  |
| Lopinavir/r [LPV/r] |  | 10.3 | 61.6 | 0.240 | 0.074 | 0.277 | 0.002 | 56 | 6.9 | 56 | Logistic Regression Higher CO [4, 8]: 64; Logistic Regression Lower CO [4, 8]: 11; Logistic Regression Higher CO [4, 9]: 58; Logistic Regression Lower CO [4, 9]: 9; lower cutoff, logistic regression [4]: 10; upper cutoff, logistic regression [4]: 60; Linear Regression Higher CO [1]: 69; Linear Regression Lower CO [1]: 8 |
| Saquinavir/r [SQV/r] |  | 1.1 | 12.0 | 0.249 | 0.165 | 0.080 | 0.054 | 12 | 1.6 | 12 | Logistic Regression Higher CO [4, 8]: 13.2; Logistic Regression Lower CO [4, 8]: 1.7; lower cutoff, logistic regression [4]: 1.7; upper cutoff, logistic regression [4]: 12.9; Linear Regression Higher CO [1]: 12.3; Linear Regression Lower CO [1]: 1.6 |
| amprenavir/r [APV/r] | 6.8 | 0.9 | 6.5 | 0.053 | 0.005 |  |  | 6.8 | 1.5 | 6.8 | clinical cutoff for 20% reduced response (lower clinical cutoff) ([1]; definition 2, after 8 weeks): 1.5 |
